Assay results published in PubChem BioAssay AID330 (DTP/NCI, 2004).
“And” between values parts separate entries of the source, which are not always exact repeats. Equal entries are not always repeated. Inconclusive results and toxic doses are left out. The calls were made as follows: active = survival T/C of 150% or more; inactive = T/C below 125% in these data.

Test system: P388 leukemia ip, CD2F1 mice, survival T/C
Assay: NCI In Vivo Anticancer Drug Screen. Data for tumor model P388 Leukemia (intraperitoneal) in CD2F1 (CDF1) mice
Conditions: endpoint: median survival time, higher = longer survival
Outline: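 Mice carrying the transplanted tumor received test compound or vehicle. Survival was recorded in each group, and the value is the treated-group measurement divided by that of the vehicle-treated control group.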

[1] = dose: 12.5 mg/kg/injection, schedule: Q01DX005 (ip), vehicle: Klucel (hydroxypropylcellulose) (HPC)
[2] = dose: 25.0 mg/kg/injection, schedule: Q01DX005 (ip), vehicle: Klucel (hydroxypropylcellulose) (HPC)
[3] = dose: 50.0 mg/kg/injection, schedule: Q01DX005 (ip), vehicle: Klucel (hydroxypropylcellulose) (HPC)
[4] = dose: 100.0 mg/kg/injection, schedule: Q01DX005 (ip), vehicle: Klucel (hydroxypropylcellulose) (HPC)
[5] = dose: 25.0 mg/kg/injection, schedule: Q01DX009 (ip), vehicle: saline
[6] = dose: 50.0 mg/kg/injection, schedule: Q01DX009 (ip), vehicle: saline
[7] = dose: 100.0 mg/kg/injection, schedule: Q01DX009 (ip), vehicle: saline
[8] = dose: 200.0 mg/kg/injection, schedule: Q01DX009 (ip), vehicle: saline
[9] = dose: 200.0 mg/kg/injection, schedule: Q01DX005 (ip), vehicle: Klucel (hydroxypropylcellulose) (HPC)
[10] = dose: 50.0 mg/kg/injection, schedule: Q01DX005 (ip), vehicle: saline with Tween-80
[11] = dose: 100.0 mg/kg/injection, schedule: Q01DX005 (ip), vehicle: saline with Tween-80
[12] = dose: 12.5 mg/kg/injection, schedule: Q01DX009 (ip), vehicle: saline
[13] = dose: 50.0 mg/kg/injection, schedule: Q01DX009 (ip), vehicle: Klucel (hydroxypropylcellulose) (HPC)
[14] = dose: 100.0 mg/kg/injection, schedule: Q01DX009 (ip), vehicle: Klucel (hydroxypropylcellulose) (HPC)
[15] = dose: 200.0 mg/kg/injection, schedule: Q01DX009 (ip), vehicle: Klucel (hydroxypropylcellulose) (HPC)
[16] = dose: 400.0 mg/kg/injection, schedule: Q01DX009 (ip), vehicle: Klucel (hydroxypropylcellulose) (HPC)
[17] = dose: 25.0 mg/kg/injection, schedule: Q01DX009 (ip), vehicle: Klucel (hydroxypropylcellulose) (HPC)
[18] = dose: 60.0 mg/kg/injection, schedule: Q01DX005 (ip), vehicle: saline with Tween-80
[19] = dose: 120.0 mg/kg/injection, schedule: Q01DX005 (ip), vehicle: saline with Tween-80
[20] = dose: 240.0 mg/kg/injection, schedule: Q01DX005 (ip), vehicle: saline with Tween-80
[21] = dose: 12.5 mg/kg/injection, schedule: Q01DX009 (ip), vehicle: Klucel (hydroxypropylcellulose) (HPC)

Measured: T/C

COC(=O)[C@H]1[C@H]2C[C@@H]3c4[nH]c5cc(OC)ccc5c4CCN3C[C@H]2C[C@@H](OC(=O)c2cccc(N(C)C)c2)[C@@H]1OC
inactive: [1] 95 % of control | [2] 94 % of control | [3] 116 % of control | [4] 86 % of control

c1c(-c2cc(C3CC3)[nH]n2)n[nH]c1C1CC1
inactive: dose: 60.0 mg/kg/injection, schedule: Q01DX005 (ip), vehicle: saline 101 % of control | dose: 120.0 mg/kg/injection, schedule: Q01DX005 (ip), vehicle: saline 97 % of control | dose: 240.0 mg/kg/injection, schedule: Q01DX005 (ip), vehicle: saline 100 % of control

CCOC(=O)CSc1ccc(C)cc1
inactive: [5] 105 % of control | [6] 89 % of control | [7] 96 % of control | [8] 99 % of control

O=C(O)c1cc(=O)cc(-c2ccccc2)o1
inactive: [3] 98 % of control | [4] 97 % of control | [9] 101 % of control

CCOC(=O)C(=[N+]=[N-])C(=O)OCC12CCC=C1CC1(CC2)OCCO1 (stereo unspecified)
inactive: [10] 101 % of control | [11] 108 % of control | dose: 200.0 mg/kg/injection, schedule: Q01DX005 (ip), vehicle: saline with Tween-80 102 % of control

Cc1ccc(S(=O)(=O)OC2CN(C)CC=C2c2ccccc2)cc1 (stereo unspecified)
inactive: [1] 105 % of control | [2] 104 % of control | [3] 99 % of control | [4] 99 % of control

COC(=O)C1=C(C(=O)OC)C(=Nc2ccccc2)c2ccccc2C1=O
inactive: dose: 100.0 mg/kg/injection, schedule: Q04DX002 (ip), vehicle: Klucel (hydroxypropylcellulose) (HPC) 100 % of control | dose: 200.0 mg/kg/injection, schedule: Q04DX002 (ip), vehicle: Klucel (hydroxypropylcellulose) (HPC) 100 % of control | dose: 400.0 mg/kg/injection, schedule: Q04DX002 (ip), vehicle: Klucel (hydroxypropylcellulose) (HPC) 110 % of control

CCOC(=O)c1conc1C
inactive: [12] 112 % of control | [5] 106 % of control | [6] 101 % of control and 103 % of control

O=C1c2ccccc2-c2n[nH]c3cccc1c23
inactive: [13] 101 % of control | [14] 102 % of control | [15] 96 % of control | [16] 95 % of control

CCCCN=[N+]=[N-]
inactive: dose: 12.5 mg/kg/injection, schedule: Q01DX009 (ip), vehicle: water 91 % of control | dose: 25.0 mg/kg/injection, schedule: Q01DX009 (ip), vehicle: water 98 % of control | dose: 50.0 mg/kg/injection, schedule: Q01DX009 (ip), vehicle: water 98 % of control | dose: 100.0 mg/kg/injection, schedule: Q01DX009 (ip), vehicle: water 100 % of control | dose: 200.0 mg/kg/injection, schedule: Q01DX009 (ip), vehicle: water 96 % of control

O=c1[nH]c2cc([N+](=O)[O-])ccc2nc1/C=C(\O)c1ccc(F)cc1
inactive: dose: 60.0 mg/kg/injection, schedule: Q01DX005 (ip), vehicle: Klucel + Tween-80 102 % of control | dose: 120.0 mg/kg/injection, schedule: Q01DX005 (ip), vehicle: Klucel + Tween-80 86 % of control

CC(C)(C)C1(c2ccccc2)C(=O)c2ccccc2C1=O
inactive: dose: 100.0 mg/kg/injection, schedule: Q04DX002 (ip), vehicle: saline 100 % of control | dose: 200.0 mg/kg/injection, schedule: Q04DX002 (ip), vehicle: saline 97 % of control | dose: 400.0 mg/kg/injection, schedule: Q04DX002 (ip), vehicle: saline 101 % of control

c1ccc(-c2nn[nH]n2)cc1
inactive: [17] 100 % of control | [13] 100 % of control | [14] 118 % of control | [15] 100 % of control

ON=C1c2cc(Cl)ccc2-c2ccc(Cl)cc21
inactive: dose: 6.25 mg/kg/injection, schedule: Q01DX009 (ip), vehicle: saline 100 % of control | [12] 97 % of control | [5] 94 % of control | [6] 90 % of control

CCOC(=O)c1cc(CC)sc1NC(=O)CC(C)=O
inactive: [18] 97 % of control | [19] 100 % of control | [20] 97 % of control

COc1ccc2c(c1OC)/C(=C/c1ccccc1)OC2C1c2c(cc3c(c2OC)OCO3)CCN1C (stereo unspecified)
inactive: [3] 104 % of control | [4] 105 % of control | [9] 96 % of control

CCCCCCCCCSc1nc2ccc(N=Cc3ccccc3O)cc2s1
inactive: [21] 100 % of control | [17] 100 % of control | [13] 91 % of control and 92 % of control | [15] 90 % of control

O=C(O)C1Oc2cc3ccccc3cc2O1
inactive: [6] 90 % of control | [7] 90 % of control | [8] 97 % of control

CC1(O)c2ccccc2C(C)(O)c2c1ccc1ccccc21 (stereo unspecified)
inactive: [10] 95 % of control | [11] 87 % of control

c1ccc2cc3c(N=Nc4cc5ccccc5[nH]4)cccc3cc2c1
inactive: dose: 100.0 mg/kg/injection, schedule: Q01DX001 (ip), vehicle: saline with Tween-80 97 % of control | dose: 200.0 mg/kg/injection, schedule: Q01DX001 (ip), vehicle: saline with Tween-80 97 % of control | dose: 400.0 mg/kg/injection, schedule: Q01DX001 (ip), vehicle: saline with Tween-80 94 % of control

CCN(CC)C(=O)Oc1cc(C(=O)N(CC)CC)c(OC(=O)N(CC)CC)cc1C(=O)N(CC)CC
inactive: [18] 101 % of control | [19] 92 % of control | [20] 89 % of control

CCOc1c(N=Nc2ccc(OC)cc2)c(C)nn1C(=S)S
inactive: dose: 60.0 mg/kg/injection, schedule: Q01DX005 (ip), vehicle: Klucel (hydroxypropylcellulose) (HPC) 115 % of control | dose: 120.0 mg/kg/injection, schedule: Q01DX005 (ip), vehicle: Klucel (hydroxypropylcellulose) (HPC) 112 % of control | dose: 240.0 mg/kg/injection, schedule: Q01DX005 (ip), vehicle: Klucel (hydroxypropylcellulose) (HPC) 100 % of control

O=C(CC1=NCCN1)c1ccccc1
inactive: [13] 100 % of control | [14] 102 % of control | [15] 108 % of control

S=C(Cl)N1CCN(C(=S)Cl)CC1
inactive: [21] 104 % of control | [17] 112 % of control | [13] 110 % of control and 93 % of control

CCCCCCCCCCCCCCCCOS(=O)(=O)O (tested in a mixture with another compound)
inactive: dose: 20.0 mg/kg/injection, schedule: Q01DX009 (ip), vehicle: saline with Tween-80 99 % of control | dose: 40.0 mg/kg/injection, schedule: Q01DX009 (ip), vehicle: saline with Tween-80 92 % of control

O=C1Nc2ccccc2/C1=C\c1ccccc1O
inactive: [17] 98 % of control | [13] 96 % of control | [14] 95 % of control | [15] 98 % of control | [16] 88 % of control
